From ChEMBL document CHEMBL1143513, “Structure-activity relationships for 2-anilino-6-phenylpyrido[2,3-d]pyrimidin-7(8H)-ones as inhibitors of the cellular checkpoint kinase Wee1” (Bioorg Med Chem Lett, 2005)

Columns and labels:
[1] = Inhibition of c-Src tyrosine kinase
Wee1-like protein kinase = Wee1-like protein kinase (Homo sapiens, UniProt P30291); experiment: Inhibition of checkpoint kinase Wee1
[2] = Inhibition of Platelet-derived growth factor receptor
[3] = target: Fibroblast growth factor receptor (Homo sapiens, UniProt P22607+P11362+P22455+P21802); experiment: Inhibition of Fibroblast growth factor receptor; assay type: protein assay

Wee1-like protein kinase, sequence (P30291 whole entry): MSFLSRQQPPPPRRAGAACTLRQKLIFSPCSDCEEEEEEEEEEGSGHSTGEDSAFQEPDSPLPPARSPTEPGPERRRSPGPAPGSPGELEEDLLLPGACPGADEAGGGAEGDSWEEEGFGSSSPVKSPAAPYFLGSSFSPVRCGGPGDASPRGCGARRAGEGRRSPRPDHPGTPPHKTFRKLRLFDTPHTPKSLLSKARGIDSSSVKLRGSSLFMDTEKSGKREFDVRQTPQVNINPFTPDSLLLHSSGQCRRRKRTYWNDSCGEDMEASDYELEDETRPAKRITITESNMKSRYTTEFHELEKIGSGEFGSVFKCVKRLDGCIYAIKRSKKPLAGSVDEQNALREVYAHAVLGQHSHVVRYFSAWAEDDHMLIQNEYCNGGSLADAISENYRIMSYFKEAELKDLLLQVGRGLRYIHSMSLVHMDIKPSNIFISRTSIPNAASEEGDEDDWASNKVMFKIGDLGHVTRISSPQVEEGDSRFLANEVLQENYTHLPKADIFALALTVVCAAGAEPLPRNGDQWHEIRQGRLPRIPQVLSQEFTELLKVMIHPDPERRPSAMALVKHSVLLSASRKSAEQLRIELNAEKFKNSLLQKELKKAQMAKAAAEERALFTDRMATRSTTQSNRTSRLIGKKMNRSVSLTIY

| Structure (SMILES) | IC50 [1] [nM] | IC50 (Wee1-like protein kinase) [nM] | IC50 [2] [nM] | IC50 [3] [nM] |
| --- | --- | --- | --- | --- |
| Cc1c(O)cc(O)c(C)c1-c1cc2cnc(Nc3ccccc3)nc2n(C)c1=O | 110 | 1000 |  |  |
| Cn1c(=O)c(-c2c(Cl)cccc2Cl)cc2cnc(Nc3ccc(CCCC4N=NN=N4)cc3)nc21 | 25 | 69 |  |  |
| Cn1c(=O)c(-c2c(Cl)cccc2Cl)cc2cnc(Nc3ccc(CC(N)=O)cc3)nc21 | 13 | 120 |  |  |
| Cn1c(=O)c(-c2c(Cl)cc(O)cc2Cl)cc2cnc(Nc3ccccc3)nc21 | 73 | 220 |  |  |
| COc1cccc(O)c1-c1cc2cnc(Nc3ccccc3)nc2n(C)c1=O | 50 | 11000 |  |  |
| Cc1cccc(Cl)c1-c1cc2cnc(Nc3ccccc3)nc2n(C)c1=O | 12 | 1900 |  |  |
| CCN(CC)CCOc1ccc(Nc2ncc3c(C)c(-c4ccccc4Cl)c(=O)n(C)c3n2)cc1 | > 50000 | 550 |  |  |
| Cn1c(=O)c(-c2c(Cl)ccc(O)c2Cl)cc2cnc(Nc3ccccc3)nc21 | 9 | 74 |  |  |
| Cn1c(=O)c(-c2c(Cl)cc(O)cc2Cl)cc2cnc(Nc3ccc(OCCCC(=O)O)cc3)nc21 | 6 | 40 |  |  |
| Cn1c(=O)c(-c2c(Cl)ccc(N)c2Cl)cc2cnc(Nc3ccccc3)nc21 | 90 | 2600 |  |  |
| Cn1c(=O)c(-c2c(Cl)ccc(C(=O)O)c2Cl)cc2cnc(Nc3ccccc3)nc21 | 280 | 3200 |  |  |
| COc1cc(OC)cc(-c2cc3cnc(N)nc3nc2NC(=O)NC(C)(C)C)c1 |  |  | > 50000 |  |
| Cn1c(=O)c(-c2c(Cl)ccc(Cl)c2Cl)cc2cnc(Nc3ccccc3)nc21 | 270 | > 50000 |  |  |
| Cn1c(=O)c(-c2c(O)cccc2O)cc2cnc(Nc3ccccc3)nc21 | 720 | 27000 |  |  |
| COc1cc(Cl)c(-c2cc3cnc(Nc4ccccc4)nc3n(C)c2=O)c(Cl)c1 | 6500 | > 50000 |  |  |
| Cc1ccc(Cl)c(-c2cc3cnc(Nc4ccccc4)nc3n(C)c2=O)c1Cl | 2800 | 50000 |  |  |
| Cc1c(-c2ccccc2Cl)c(=O)n(C)c2nc(Nc3ccccc3)ncc12 | > 50000 | 410 |  |  |
| Cn1c(=O)c(-c2c(Cl)cc(Cl)cc2Cl)cc2cnc(Nc3ccccc3)nc21 | 330 | 8600 |  |  |
| Cn1c(=O)c(-c2c(Cl)cccc2Cl)cc2cnc(Nc3ccc(CCCC(=O)OCCN4CCCCC4)cc3)nc21 | 11 | 142 |  |  |
| Cn1c(=O)c(-c2c(Cl)ccc(O)c2Cl)cc2cnc(Nc3ccc(OCCCC(=O)O)cc3)nc21 | 99 | 40 |  |  |
| Cn1c(=O)c(-c2c(Cl)cccc2Cl)cc2cnc(Nc3ccc(OCC(N)=O)cc3)nc21 | 14 | 250 |  |  |
| COc1cc(OC)cc(-c2cc3cnc(NCCCN4CCOCC4)nc3nc2NC(=O)NC(C)(C)C)c1 | > 50000 |  |  | 30 |
| CCN(CC)CCOc1ccc(Nc2ncc3cc(-c4c(Cl)cc(O)cc4Cl)c(=O)n(C)c3n2)cc1 | 8 | 80 |  |  |
| CC(C)(C)NC(=O)Nc1nc2nc(N)ncc2cc1-c1c(Cl)cccc1Cl |  |  | 1100 |  |
| CCN(CC)CCOc1ccc(Nc2ncc3cc(-c4c(Cl)cccc4Cl)c(=O)n(C)c3n2)cc1 [PD-0166285] |  |  | 79000 |  |

Second part, led by results:

| IC50 [1] [nM] | IC50 (Wee1-like protein kinase) [nM] | Structure (SMILES) | IC50 [2] [nM] | IC50 [3] [nM] |
| --- | --- | --- | --- | --- |
| 1500 | 3600 | CC(=O)Nc1cc(Cl)c(-c2cc3cnc(Nc4ccccc4)nc3n(C)c2=O)c(Cl)c1 |  |  |
| 7 | 124 | CN(C)CCOC(=O)CCCc1ccc(Nc2ncc3cc(-c4c(Cl)cccc4Cl)c(=O)n(C)c3n2)cc1 |  |  |
| 130 | 8600 | Cn1c(=O)c(-c2c(Cl)ccc(C(N)=O)c2Cl)cc2cnc(Nc3ccccc3)nc21 |  |  |
| 39 | 3500 | Cn1c(=O)c(-c2c(Cl)ccc(CO)c2Cl)cc2cnc(Nc3ccccc3)nc21 |  |  |
| 58 | 4500 | Cc1cccc(Br)c1-c1cc2cnc(Nc3ccccc3)nc2n(C)c1=O |  |  |
| 28 | 260 | Cn1c(=O)c(-c2c(Cl)cccc2Cl)cc2cnc(Nc3ccc(CCCCC(N)=O)cc3)nc21 |  |  |
| 540 | > 50000 | COc1ccc(Cl)c(-c2cc3cnc(Nc4ccccc4)nc3n(C)c2=O)c1Cl |  |  |
| 250 | > 50000 | COc1cc(C)c(-c2cc3cnc(Nc4ccccc4)nc3n(C)c2=O)c(C)c1 |  |  |
| 980 | > 50000 | COc1cccc(OC)c1-c1cc2cnc(Nc3ccccc3)nc2n(C)c1=O |  |  |
| 780 | > 50000 | CC(=O)Nc1ccc(Cl)c(-c2cc3cnc(Nc4ccccc4)nc3n(C)c2=O)c1Cl |  |  |
| 15000 | 1200 | Cc1cccc(C)c1-c1c(C)c2cnc(Nc3ccccc3)nc2n(C)c1=O |  |  |
| 360 | 540 | CCN(CC)CCOc1ccc(Nc2ncc3c(C)c(-c4c(C)cccc4C)c(=O)n(C)c3n2)cc1 |  |  |
| 23 | 990 | CCN(CC)CCOc1ccc(Nc2ncc3cc(-c4c(C)cccc4C)c(=O)n(C)c3n2)cc1 |  |  |
| 120 | 3400 | COc1cccc(Cl)c1-c1cc2cnc(Nc3ccccc3)nc2n(C)c1=O |  |  |
| 4 | 86 | Cn1c(=O)c(-c2c(Cl)cccc2Cl)cc2cnc(Nc3ccc(OCCCC(=O)O)cc3)nc21 |  |  |
| 6 | 150 | CCN(CC)CCOc1ccc(Nc2ncc3cc(-c4c(Cl)ccc(O)c4Cl)c(=O)n(C)c3n2)cc1 |  |  |
| 43 | 2400 | Cn1c(=O)c(-c2c(F)cccc2Cl)cc2cnc(Nc3ccccc3)nc21 |  |  |

| IC50 [1] [nM] | IC50 (Wee1-like protein kinase) [nM] | Structure (SMILES) | IC50 [2] [nM] | IC50 [3] [nM] |
| --- | --- | --- | --- | --- |
| 62 | 31000 | Cn1c(=O)c(-c2c(Cl)ccc(CN)c2Cl)cc2cnc(Nc3ccccc3)nc21 |  |  |
| 8100 | 41000 | Cn1c(=O)c(-c2c(C(F)(F)F)cccc2C(F)(F)F)cc2cnc(Nc3ccccc3)nc21 |  |  |
| 270 | 3700 | Cn1c(=O)c(-c2c(Cl)cc(N)cc2Cl)cc2cnc(Nc3ccccc3)nc21 |  |  |
| 24 | 2600 | Cn1c(=O)c(-c2c(Cl)cccc2Cl)cc2cnc(Nc3ccccc3)nc21 |  |  |
| > 50000 | > 50000 | Cc1c(-c2ccccc2)c(=O)n(C)c2nc(Nc3ccccc3)ncc12 |  |  |
| 39000 | 33000 | COc1cc(OC)c(C)c(-c2cc3cnc(Nc4ccccc4)nc3n(C)c2=O)c1C |  |  |
| 14 | 990 | Cc1cccc(C)c1-c1cc2cnc(Nc3ccccc3)nc2n(C)c1=O |  |  |
| 210 | > 50000 | Cn1c(=O)c(-c2c(Cl)cccc2C(F)(F)F)cc2cnc(Nc3ccccc3)nc21 |  |  |
| 11 | 140 | Cn1c(=O)c(-c2c(Cl)c(O)cc(O)c2Cl)cc2cnc(Nc3ccccc3)nc21 |  |  |
| > 50000 | > 50000 | COc1cc(OC)c(Cl)c(-c2cc3cnc(Nc4ccccc4)nc3n(C)c2=O)c1Cl |  |  |
| 47 | 410 | Cn1c(=O)c(-c2c(Br)cccc2Br)cc2cnc(Nc3ccccc3)nc21 |  |  |
| 4 | 95 | Cn1c(=O)c(-c2c(Cl)cccc2Cl)cc2cnc(Nc3ccc(CCCC(=O)OCCN4CCOCC4)cc3)nc21 |  |  |
| 17 | 580 | Cc1cc(O)cc(C)c1-c1cc2cnc(Nc3ccccc3)nc2n(C)c1=O |  |  |
| 66 | 9700 | Cn1c(=O)c(-c2c(F)cccc2F)cc2cnc(Nc3ccccc3)nc21 |  |  |
| 30 | 190 | Cn1c(=O)c(-c2c(Cl)cccc2Cl)cc2cnc(Nc3ccc(CCC(N)=O)cc3)nc21 |  |  |
| 22 | 1500 | Cn1c(=O)c(-c2c(O)cccc2Cl)cc2cnc(Nc3ccccc3)nc21 |  |  |
| 9 | 90 | Cn1c(=O)c(-c2c(Cl)cccc2Cl)cc2cnc(Nc3ccc(CC(N)C(=O)O)cc3)nc21 (stereo not given) |  |  |
